Source: patent US11491227B2, “Cucurbituril-based hydrogels” (CAMBRIDGE ENTERPRISE LIMITED, priority 2012, dated 2022)

Assays:
PVA-MV@CB[8] = experiment: ITC second guest binding to PVA-MV in the presence of CB[8]; conditions: 25° C., 10 mM PBS buffer pH 7.0
Description: ITC titration experiments were carried out on a VP-ITC from Microcal Inc. at 25° C. in 10 mM sodium phosphate buffer (pH=7). In a typical experiment, the host was in the sample cell at a concentration of 0.1 mM, and the guest was in the syringe at a 10 fold higher concentration. In the case of functional polymers, the concentration used is determined from the concentration of functional monomer units in solution and not the concentration of polymer. A titration consisted of 29 consecutive injections of 2-10 mL with at least 300 s intervals between injections. The first data point was removed from the data set prior to curve fitting. Heats of dilution were checked by titration well beyond saturation or by titration of the guest into a buffer solution and subtracted from the normalized enthalpies, but relatively small in all cases. The data were analyzed with Origin 7.0 software, using the one set of sites model.
Isothermal titration calorimetry (ITC) was used for quantitative investigation of the respective binding thermodynamics for the HEC-Np and PVA-MV with CB[8]

[1] = tested on: L929 mouse broblast cells; conditions: 1 ppm; cited from earlier work

| Ka (PVA-MV@CB[8]) | Compound | cytotoxic response [1] |
| --- | --- | --- |
| (1.10 ± 0.03) × 10^5 M^−1 | Oc1ccc2ccccc2c1 [NpOH, 2-naphthol] | – |
| – | dibutyltin dilaurate [TDL] | does not elicit a cytotoxic response |
